Results on 1 molecule are retold here after patent US12630501B2, “Anti-fibrotic compounds and use thereof” (HADASIT MEDICAL RESEARCH SERVICES AND DEVELOPMENT LTD., priority 2019, dated 2026).

The target in one series is HDAC3 (Homo sapiens, UniProt O15379). To be noted: prostate cancer cells; cited from earlier work.
Another series has as its target HDAC1 (Homo sapiens, UniProt Q13547). The settings on record: prostate cancer cells; cited from earlier work.
Series [1] has as its system BLM-treated C57BL/6 WT mice. To be noted: prior finding restated; cited from earlier work.
The next series relates to IPF cell line ATCC191. Description: Total cell-lysate pan-acetyl immunoblot. Format: cell-based, human. The settings on record: CMH 30 μM; vehicle 0.62. On the procedure:
IPF cell line ATCC191 and Normal cell line ATCC151 (0.5×10^6, 191 and 151, respectively), were cultured (10% DMEM) and total cell acetylations was compared. IPF cell line ATCC191 were further exposed in culture (10% DMEM) to CMH (30 μM, vs. 4% DMSO (vehicle)). Total cell-lysate immunoblots with subsequent pan-acetyl in IPF-lung vs. normal-lung myofibroblasts (191 vs. 151) was measured (FIG. 7A). IPF-lung myofibroblasts treated with CMH were compared to control treatment with vehicle (FIG. 7B). […] Thus, CMH inhibits IPF cell proteins-deacetylation and normalized it.

The next series has as its system IPF-lung myofibroblasts. Briefly: Anti-Fas mAb-mediated cell death of IPF-lung myofibroblasts (trypan blue, caspase-3 cleavage). Format: cell-based, human. The method, then: Cell death and apoptosis Apoptosis was assessed with Annexin V affinity labeling, trypan blue exclusion, and caspase-3 cleavage in WB as described in Golan-Gerstl et al., Am. J. Respir. Cell Mol. Biol. 36: 270-275, 2007; Wallach-Dayan et al., PNAS USA 104: 20460-20465, 2007; and Wallach-Dayan et al., Am. J. Physiol. Lung Cell Mol. Physiol. 290: L790-L796, 2006.
Caspase-8 activation further targets effector caspase-3 and caspase-7, a parallel […] pathway, caspases 6 and 9, MAPKs, and Bim phosphorylations with binding cascades to Bax, Apaf-1, and caspase-9, allowing Bax-mediated cell death to be detected as well. Concomitantly, inhibitors of these processes, including FLIP, show negative interaction with FADD and with the inhibitors of apoptotic proteins (IAPs). […] In addition, CMH increased CH-11 anti-human Fas mAb-mediated IPF-myofibroblast cell death (24 h, 10 μM) above that produced by treatment with the vehicle alone (4% DMSO), as shown by microscope images (FIG. 5A) and trypan blue exclusion (FIG. 5A, quantification in inserts, and FIG. 5B, graphical representation), with 0.9-1×10^5 viable cells in control compared to only 0.3×10^5 cells following CMH. In fact, CMH-treated cells were 10 times more likely to undergo Fas-induced apoptosis (2.8 compared to 0.3), as determined by the OD of cleaved to uncleaved caspase-3 ratios (FIG. 5C). CMH therefore amplifies Fas signaling cascades above those induced by Fas alone. Thus, multiple intracellular anti-apoptotic signaling pathways mediated by SIRT1 and Ku70 were altered by CMH in vitro, which further enhanced Fas-apoptosis cascades.

The conditions of series [2]: cited from earlier work.
For a further series, the target named is T1, HDAC7 (Homo sapiens, UniProt Q8WUI4).
T1 sequence (Q8WUI4 1-952): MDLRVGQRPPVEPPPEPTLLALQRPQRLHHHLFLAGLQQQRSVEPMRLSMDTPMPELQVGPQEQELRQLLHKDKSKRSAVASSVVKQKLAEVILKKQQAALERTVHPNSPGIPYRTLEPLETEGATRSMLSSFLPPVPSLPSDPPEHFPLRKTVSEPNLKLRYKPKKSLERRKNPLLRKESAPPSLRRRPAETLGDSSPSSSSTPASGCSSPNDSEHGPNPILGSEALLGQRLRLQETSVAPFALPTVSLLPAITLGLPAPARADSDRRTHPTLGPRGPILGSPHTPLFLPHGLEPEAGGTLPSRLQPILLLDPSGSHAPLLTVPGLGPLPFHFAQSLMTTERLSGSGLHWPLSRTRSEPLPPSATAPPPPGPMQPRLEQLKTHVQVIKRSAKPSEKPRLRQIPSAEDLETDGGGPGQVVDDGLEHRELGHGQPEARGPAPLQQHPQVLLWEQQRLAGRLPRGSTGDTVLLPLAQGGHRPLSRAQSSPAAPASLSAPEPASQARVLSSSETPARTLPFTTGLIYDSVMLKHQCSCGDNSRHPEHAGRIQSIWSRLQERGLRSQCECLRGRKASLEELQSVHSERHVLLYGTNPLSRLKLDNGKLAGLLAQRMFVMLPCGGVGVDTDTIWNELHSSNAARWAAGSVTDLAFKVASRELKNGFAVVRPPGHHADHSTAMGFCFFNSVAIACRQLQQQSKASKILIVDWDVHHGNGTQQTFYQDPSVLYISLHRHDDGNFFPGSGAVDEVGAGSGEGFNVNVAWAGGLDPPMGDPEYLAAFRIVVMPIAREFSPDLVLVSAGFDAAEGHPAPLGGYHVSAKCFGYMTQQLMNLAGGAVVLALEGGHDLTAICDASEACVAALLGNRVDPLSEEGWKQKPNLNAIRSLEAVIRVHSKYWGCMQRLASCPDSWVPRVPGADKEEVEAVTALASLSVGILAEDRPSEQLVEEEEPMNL
The settings on record: prostate cancer cells; cited from earlier work.

Another series deals with HDAC4 (Homo sapiens, UniProt P56524). To be noted: prostate cancer cells; cited from earlier work.
HDAC4, sequence (P56524 whole entry, species assumed): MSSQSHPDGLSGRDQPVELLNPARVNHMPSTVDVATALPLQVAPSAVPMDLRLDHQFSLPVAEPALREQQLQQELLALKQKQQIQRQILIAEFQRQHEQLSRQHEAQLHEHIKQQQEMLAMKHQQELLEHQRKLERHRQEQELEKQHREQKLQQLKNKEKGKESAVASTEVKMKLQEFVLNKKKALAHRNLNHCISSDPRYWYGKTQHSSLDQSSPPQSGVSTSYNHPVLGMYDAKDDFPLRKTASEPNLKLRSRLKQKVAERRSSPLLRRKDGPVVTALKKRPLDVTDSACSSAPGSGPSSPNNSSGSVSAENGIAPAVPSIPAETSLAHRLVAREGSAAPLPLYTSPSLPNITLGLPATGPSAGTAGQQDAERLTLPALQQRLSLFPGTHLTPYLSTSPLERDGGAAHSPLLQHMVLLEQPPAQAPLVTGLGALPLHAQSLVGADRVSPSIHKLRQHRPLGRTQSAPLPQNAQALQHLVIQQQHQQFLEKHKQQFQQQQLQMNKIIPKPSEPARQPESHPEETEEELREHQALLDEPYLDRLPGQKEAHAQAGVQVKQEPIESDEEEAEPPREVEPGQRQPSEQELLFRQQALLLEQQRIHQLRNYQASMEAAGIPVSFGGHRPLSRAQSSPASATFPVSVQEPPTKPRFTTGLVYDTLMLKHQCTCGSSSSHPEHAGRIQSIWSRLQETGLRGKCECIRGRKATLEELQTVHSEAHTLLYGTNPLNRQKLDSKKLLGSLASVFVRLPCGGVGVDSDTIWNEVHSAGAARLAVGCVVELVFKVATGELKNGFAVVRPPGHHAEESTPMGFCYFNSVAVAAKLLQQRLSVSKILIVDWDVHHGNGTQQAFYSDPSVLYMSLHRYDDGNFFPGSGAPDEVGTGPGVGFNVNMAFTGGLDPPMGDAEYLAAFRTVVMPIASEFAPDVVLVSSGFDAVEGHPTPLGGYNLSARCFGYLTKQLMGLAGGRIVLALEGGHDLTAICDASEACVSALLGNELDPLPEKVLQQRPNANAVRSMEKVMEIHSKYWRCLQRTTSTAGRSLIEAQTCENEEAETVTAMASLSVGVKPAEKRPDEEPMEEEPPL
In the next series the target is HDACS (Homo sapiens, UniProt Q9UQL6). To be noted: prostate cancer cells; cited from earlier work.
HDACS, sequence (Q9UQL6 whole entry): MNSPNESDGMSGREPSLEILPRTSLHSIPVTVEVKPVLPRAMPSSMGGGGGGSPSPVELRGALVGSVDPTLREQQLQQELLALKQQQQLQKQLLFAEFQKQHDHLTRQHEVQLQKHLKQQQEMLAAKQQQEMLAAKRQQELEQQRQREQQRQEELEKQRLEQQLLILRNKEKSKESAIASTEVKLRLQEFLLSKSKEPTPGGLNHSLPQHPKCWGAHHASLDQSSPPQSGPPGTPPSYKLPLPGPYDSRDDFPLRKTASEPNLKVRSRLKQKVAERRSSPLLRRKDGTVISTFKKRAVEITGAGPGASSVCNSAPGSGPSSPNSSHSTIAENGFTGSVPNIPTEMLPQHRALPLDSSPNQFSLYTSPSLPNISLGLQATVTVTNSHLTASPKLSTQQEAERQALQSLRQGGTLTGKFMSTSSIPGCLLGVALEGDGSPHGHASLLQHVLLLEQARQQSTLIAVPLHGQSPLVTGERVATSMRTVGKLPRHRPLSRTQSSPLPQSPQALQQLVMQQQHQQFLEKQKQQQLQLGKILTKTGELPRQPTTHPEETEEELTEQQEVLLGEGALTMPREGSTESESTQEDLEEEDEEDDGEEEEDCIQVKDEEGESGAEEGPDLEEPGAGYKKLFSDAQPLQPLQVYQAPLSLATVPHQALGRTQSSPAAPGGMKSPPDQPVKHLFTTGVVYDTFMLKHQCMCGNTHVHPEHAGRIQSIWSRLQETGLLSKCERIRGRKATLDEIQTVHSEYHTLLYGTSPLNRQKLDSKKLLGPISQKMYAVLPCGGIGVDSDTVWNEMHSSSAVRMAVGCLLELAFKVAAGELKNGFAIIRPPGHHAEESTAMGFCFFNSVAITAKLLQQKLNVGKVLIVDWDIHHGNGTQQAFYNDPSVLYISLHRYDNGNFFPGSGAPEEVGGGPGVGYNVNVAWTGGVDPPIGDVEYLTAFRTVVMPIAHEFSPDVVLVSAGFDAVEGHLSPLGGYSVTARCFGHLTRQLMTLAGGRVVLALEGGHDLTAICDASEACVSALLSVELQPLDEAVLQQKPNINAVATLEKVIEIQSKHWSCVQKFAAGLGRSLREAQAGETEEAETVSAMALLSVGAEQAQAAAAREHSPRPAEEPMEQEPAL
For another series, the target named is HDAC2 (Homo sapiens, UniProt Q92769). To be noted: prostate cancer cells; cited from earlier work.
HDAC2, sequence (Q92769 whole entry, species assumed): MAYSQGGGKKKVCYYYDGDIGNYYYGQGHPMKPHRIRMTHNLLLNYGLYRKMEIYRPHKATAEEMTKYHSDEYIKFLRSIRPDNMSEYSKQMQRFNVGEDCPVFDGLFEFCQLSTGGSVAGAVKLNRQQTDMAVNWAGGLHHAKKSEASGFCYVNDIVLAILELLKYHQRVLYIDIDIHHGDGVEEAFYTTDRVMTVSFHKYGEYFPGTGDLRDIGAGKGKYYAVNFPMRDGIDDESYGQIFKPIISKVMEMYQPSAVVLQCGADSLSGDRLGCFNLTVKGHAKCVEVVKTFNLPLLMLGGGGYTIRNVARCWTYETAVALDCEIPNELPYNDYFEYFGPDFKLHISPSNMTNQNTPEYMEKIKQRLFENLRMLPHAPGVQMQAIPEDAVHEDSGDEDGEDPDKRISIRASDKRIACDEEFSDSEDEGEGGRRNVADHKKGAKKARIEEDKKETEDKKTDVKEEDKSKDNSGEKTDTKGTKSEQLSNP
Series [3] deals with breast cancer cells and pancreatic cancer cells. To be noted: cited from earlier work.

HDAC1, sequence (Q13547 whole entry, species assumed): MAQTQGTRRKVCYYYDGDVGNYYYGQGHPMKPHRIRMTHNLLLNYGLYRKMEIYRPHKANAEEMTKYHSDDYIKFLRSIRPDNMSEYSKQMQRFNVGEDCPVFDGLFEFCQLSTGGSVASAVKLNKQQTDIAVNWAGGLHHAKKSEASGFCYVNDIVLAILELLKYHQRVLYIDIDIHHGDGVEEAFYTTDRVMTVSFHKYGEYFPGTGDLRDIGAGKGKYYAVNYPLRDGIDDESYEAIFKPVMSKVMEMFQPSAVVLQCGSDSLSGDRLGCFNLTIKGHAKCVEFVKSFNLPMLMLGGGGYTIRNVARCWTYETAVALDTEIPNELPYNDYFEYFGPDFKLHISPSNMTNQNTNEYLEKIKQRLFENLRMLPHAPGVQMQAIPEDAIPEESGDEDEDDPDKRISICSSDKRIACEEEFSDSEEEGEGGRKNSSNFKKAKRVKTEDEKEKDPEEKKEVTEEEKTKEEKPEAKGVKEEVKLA
HDAC3, sequence (O15379 whole entry, species assumed): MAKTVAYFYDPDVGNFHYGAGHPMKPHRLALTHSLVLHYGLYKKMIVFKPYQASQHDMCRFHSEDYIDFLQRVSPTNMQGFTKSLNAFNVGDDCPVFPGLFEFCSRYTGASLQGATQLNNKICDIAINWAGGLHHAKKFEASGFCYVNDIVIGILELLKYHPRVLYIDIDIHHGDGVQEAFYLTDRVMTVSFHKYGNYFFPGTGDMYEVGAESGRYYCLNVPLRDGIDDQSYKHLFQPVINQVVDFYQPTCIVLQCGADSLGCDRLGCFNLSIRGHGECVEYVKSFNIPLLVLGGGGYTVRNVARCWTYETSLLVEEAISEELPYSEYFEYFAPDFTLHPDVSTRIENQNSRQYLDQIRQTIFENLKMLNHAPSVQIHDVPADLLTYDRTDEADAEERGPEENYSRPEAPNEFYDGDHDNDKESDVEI
HDAC3, sequence (Q9Y618 395-489 partner limits assumed, species assumed): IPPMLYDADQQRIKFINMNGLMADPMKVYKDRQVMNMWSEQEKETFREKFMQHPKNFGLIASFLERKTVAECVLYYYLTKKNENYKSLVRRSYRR

For `Cc1cc(Cl)ccc1OCCCC(=O)NO` [CMH, 4-(4-chloro-2-methylphenoxy)-N-hydroxybutanamide], the “Inhibition of HDAC3” value on HDAC3 is reported as “Selective inhibition”. Further, at HDAC1, the “Inhibition of HDAC1” value was “not inhibited”. In series [1], the “Lung fibrosis in in-vivo model, C57BL/6 mice lungs following bleomycin instillation” value is recorded as “attenuate lung fibrosis”. Besides, in the series with IPF cell line ATCC191, the “Protein acetylation, optical density ratio to GAPDH (OD) in pan-acetyl immunoblots” value stood at 1.77 OD. Besides, the “Viable cells, trypan blue exclusion” value with IPF-lung myofibroblasts (CMH plus CH-11 anti-human Fas mAb (24 h, 10 μM), control 0.9-1×10^5) is on record as 0.3×10^5 cells. Moreover, the “OD of cleaved to uncleaved caspase-3 ratio” value in the series with IPF-lung myofibroblasts (CMH plus anti-Fas mAb, vehicle 0.3) came to 2.8. The “Likelihood to undergo Fas-induced apoptosis vs. vehicle” value with IPF-lung myofibroblasts (from cleaved to uncleaved caspase-3 ratios) amounted to 10 times. For the same molecule, the Water solubility result in series [2] is listed as “low”. The “Inhibition of HDAC7” value on HDAC7 is reported as “not inhibited”. The “Inhibition of HDAC4” value at HDAC4 is listed as “not inhibited”. The “Inhibition of HDACS” value on HDACS is “not inhibited”. The “Inhibition of HDAC2” value on HDAC2 is “not inhibited”. Also, in series [3], the Apoptosis entry is on record as “increase” and the FLIP expression result is listed as “downregulate”.
